Data from US12550923B2, “Allulose syrups” (Tate & Lyle Solutions USA LLC, priority 2015, dated 2026).

Assay: Crystallization stability of seeded allulose syrups
Type: physicochemical
Conditions: 25° C.
Procedure: Allulose syrups were prepared at 50, 60, 71, 77, and 85% DS and were equilibrated at 25° C., 15° C. and 4° C. These samples were seeded with ˜0.1% crystalline allulose and crystallization was monitored visually and by change in dry solids of the syrup fraction after 1 month of storage.
A change in DS greater than 0 indicates crystallization, and a larger number indicates a larger amount of crystallization. […] Therefore, for storage of a crystallization stable syrup at ambient and reduced temperatures, 77% solids or less is desirable. For cool (<25° C.) temperatures, 71% solids or less is more desirable.

O=C(CO)C(O)C(O)C(O)CO (stereo not shown) [allulose]
limit of solubility (DS): ~77%
